Experimental data reported in patent US20060229305A1, “Tetrahydronaphthalene derivatives, process for their production and their use as anti-inflammatory agents” (priority 2005, published 2006).

What was measured:
[1] = target: T1, glucocorticoid receptor (GR) (Homo sapiens, UniProt P04150); experiment: Binding to the glucocorticoid receptor, recombinant receptor in Sf9 cytosol, vs [3H]-dexamethasone; conditions: cytosol of Sf9 cells, [3H]-dexamethasone as reference
T1 construct: made in house; host or cells: Sf9 cells infected with recombinant baculovirus (cytosol preparation)
T1 sequence (P04150 1-777): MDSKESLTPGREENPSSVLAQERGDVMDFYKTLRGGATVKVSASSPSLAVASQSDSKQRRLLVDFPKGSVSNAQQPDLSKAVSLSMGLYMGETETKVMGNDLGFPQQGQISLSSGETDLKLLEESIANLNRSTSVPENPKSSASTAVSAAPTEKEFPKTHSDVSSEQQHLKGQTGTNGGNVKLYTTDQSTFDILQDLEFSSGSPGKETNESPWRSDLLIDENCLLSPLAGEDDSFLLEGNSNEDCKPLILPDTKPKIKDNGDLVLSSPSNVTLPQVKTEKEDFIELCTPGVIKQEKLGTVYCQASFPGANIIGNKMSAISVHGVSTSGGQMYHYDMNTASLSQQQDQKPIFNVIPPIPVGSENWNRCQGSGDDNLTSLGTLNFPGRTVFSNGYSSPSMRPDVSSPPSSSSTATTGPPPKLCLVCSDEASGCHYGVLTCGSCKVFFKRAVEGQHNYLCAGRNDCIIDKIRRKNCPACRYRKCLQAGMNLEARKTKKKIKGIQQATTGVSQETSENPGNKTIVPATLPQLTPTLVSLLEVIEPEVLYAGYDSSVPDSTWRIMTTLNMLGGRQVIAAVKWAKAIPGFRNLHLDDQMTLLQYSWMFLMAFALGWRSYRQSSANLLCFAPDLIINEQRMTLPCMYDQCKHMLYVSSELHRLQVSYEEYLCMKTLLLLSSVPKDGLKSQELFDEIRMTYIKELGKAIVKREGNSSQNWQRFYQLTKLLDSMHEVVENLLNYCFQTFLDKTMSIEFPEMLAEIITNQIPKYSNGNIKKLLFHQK
Excerpt: (§1) The binding of the substances to the glucocorticoid receptor (GR) and other steroid-hormone receptors (mineral corticoid receptor (MR), progesterone receptor (PR) and androgen receptor (AR)) is examined with the aid of recombinantly produced receptors. Cytosol preparations of Sf9 cells, which had been infected with recombinant baculoviruses that code for the GR, are used for the binding studies. In comparison to the reference substance [^3H]-dexamethasone, the substances show a high affinity to the GR.

[2] = target: T2, progesterone receptor (PR) (Homo sapiens, UniProt P06401); experiment: Binding to the progesterone receptor, recombinantly produced receptor
T2 construct: made in house
T2 sequence (P06401 1-933): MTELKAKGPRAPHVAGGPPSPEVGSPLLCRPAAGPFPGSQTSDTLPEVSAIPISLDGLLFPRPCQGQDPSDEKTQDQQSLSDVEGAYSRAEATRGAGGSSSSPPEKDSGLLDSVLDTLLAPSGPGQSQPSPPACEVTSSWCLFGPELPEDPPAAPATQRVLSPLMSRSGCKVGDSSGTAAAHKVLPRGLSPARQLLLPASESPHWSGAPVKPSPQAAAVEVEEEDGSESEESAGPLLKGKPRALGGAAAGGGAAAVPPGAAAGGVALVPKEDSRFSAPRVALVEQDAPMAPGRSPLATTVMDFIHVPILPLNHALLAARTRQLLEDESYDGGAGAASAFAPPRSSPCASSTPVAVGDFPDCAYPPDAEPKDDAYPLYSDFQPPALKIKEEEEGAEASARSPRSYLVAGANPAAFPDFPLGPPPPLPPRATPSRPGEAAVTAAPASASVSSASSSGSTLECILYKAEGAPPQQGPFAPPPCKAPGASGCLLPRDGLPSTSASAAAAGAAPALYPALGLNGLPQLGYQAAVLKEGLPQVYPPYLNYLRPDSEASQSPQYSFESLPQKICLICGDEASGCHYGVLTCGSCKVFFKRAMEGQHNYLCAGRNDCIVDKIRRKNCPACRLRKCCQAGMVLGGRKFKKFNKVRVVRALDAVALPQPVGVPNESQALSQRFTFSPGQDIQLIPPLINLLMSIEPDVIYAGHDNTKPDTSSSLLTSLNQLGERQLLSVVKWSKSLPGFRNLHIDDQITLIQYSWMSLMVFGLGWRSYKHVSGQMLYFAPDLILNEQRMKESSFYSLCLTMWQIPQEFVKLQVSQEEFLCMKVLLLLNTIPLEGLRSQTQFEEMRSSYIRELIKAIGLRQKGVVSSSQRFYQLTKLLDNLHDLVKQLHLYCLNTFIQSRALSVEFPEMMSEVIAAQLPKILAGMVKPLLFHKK
Excerpt: as §1

[3] = tested on: cytokine IL-8 secretion, human monocyte cell line THP-1; experiment: Inhibition of LPS-triggered IL-8 secretion in THP-1 cells (ELISA); format: cell-based
Procedure: The concentration of the cytokines was determined in the supernatant by means of commercially available ELISA kits.

For Cc1ncc2c(NC3c4ccc(F)c(O)c4C(C)C(C)C3(O)C(F)(F)F)cc(F)cc2n1 (racemic) [Example 3, 2-Fluoro-5-[(7-fluoro-2-methylquinazolin-5-yl)amino]-5,6,7,8-tetrahydro-7,8-dimethyl-6-(trifluoromethyl)naphthalene-1,6-diol], the IC50 [1] was 36 nM, the IC50 [2] was over 1000 nM and the IC50 ([3]; Homo sapiens, LPS-triggered IL-8 secretion, THP-1, ELISA of supernatant, read-out: IC50(IL8)) was 130 nM. The “efficiency relative to [3H]-dexamethasone as a standard” value ([3]; IL-8 inhibition, THP-1, LPS) was 80%.
